Experimental data from ChEMBL document CHEMBL5385896, “Discovery of PIM-1 kinase inhibitors based on the 2,5-disubstituted 1,3,4-oxadiazole scaffold against prostate cancer: Design, synthesis, in vitro and in vivo cytotoxicity investigation” (Eur J Med Chem, 2023).
Calls of active or inactive are those of the source. The rule behind the calls is not given here.

Columns and labels:
HepG2 = experiment: Cytotoxicity against human HepG2 cells assessed as inhibition of cell growth incubated for 48 hrs by MTT assay; type: functional, cell-based; details: HepG2, 48 h
PC-3 [1] = experiment: cells; type: functional, cell-based; details: Homo sapiens, PC-3, 48 h
Description: Cytotoxicity against human PC-3 cells assessed as inhibition of cell growth incubated for 48 hrs by MTT assay

MCF7 = experiment: cells; type: functional, cell-based; details: Homo sapiens, MCF7, 48 h
Description: Cytotoxicity against human MCF7 cells assessed as inhibition of cell growth incubated for 48 hrs by MTT assay

in vitro = details: human, RWPE2 cells
Description: Cytotoxicity against human RWPE2 cells assessed as inhibition of cell growth incubated for 48 hrs by MTT assay

[2] = Antioxidant activity assessed as DPPH radical scavenging activity incubated for 30 mins; type: functional
[3] = Antioxidant activity assessed as DPPH radical scavenging activity at 100 uM incubated for 30 mins relative to control; type: functional
PC-3 [4] = experiment: Antitumor activity against human PC-3 cells xenografted in mouse assessed as increase in hemoglobin level at 5.2 mg/kg,ip administration (reference value: 2.94 +/- 0.54 g/dl); type: functional
PC-3 [5] = experiment: Antitumor activity against human PC-3 cells xenografted in mouse assessed as decrease in tumor mass at 5.2 mg/kg,ip administration; type: functional; set-up: scale not given: the % may be the effect or the level left
PC-3 [6] = experiment: Antitumor activity against human PC-3 cells xenografted in mouse assessed as increase in RBC count at 5.2 mg/kg,ip administration (reference value: 2.34 +/- 0.57 10^6/microL); type: functional
PC-3 [7] = experiment: Antitumor activity against human PC-3 cells xenografted in mouse assessed as decrease in ALT level at 5.2 mg/kg,ip administration (reference value: 81.25 +/- 1.69 I/U); type: functional
PC-3 [8] = experiment: Antitumor activity against human PC-3 cells xenografted in mouse assessed as decrease in WBC count at 5.2 mg/kg,ip administration (reference value: 4.98 +/- 0.87 10^3/microL); type: functional
PC-3 [9] = experiment: Antitumor activity against human PC-3 cells xenografted in mouse assessed as decrease in tumor volume at 5.2 mg/kg,ip administration; type: functional
PC-3 [10] = experiment: Antitumor activity against human PC-3 cells xenografted in mouse assessed as increase in total protein level at 5.2 mg/kg,ip administration (reference value: 4.01 +/- 0.27 g/dl); type: functional
PC-3 [11] = experiment: Antitumor activity against human PC-3 cells xenografted in mouse assessed as decrease in AST level at 5.2 mg/kg,ip administration (reference value: 85.38 +/- 1.59 I/U); type: functional
PC-3 [12] = experiment: Induction of apoptosis in human PC-3 cells assessed as late apoptotic cells at 0.017 uM incubated for 48 hrs by Annexin V-FITC and PI staining based flow cytometric analysis (reference value: 0.18 %); type: functional
PC-3 [13] = experiment: Induction of cell cycle arrest in human PC-3 cells assessed as accumulation of cells at G2/M-phase at 0.017 uM incubated for 48 hrs by Annexin V-FITC and PI staining based flow cytometric analysis (reference value: 13.19 %); type: functional
PC-3 [14] = experiment: Induction of apoptosis in human PC-3 cells assessed as fold change in PUMA gene expression at 0.017 uM incubated for 48 hrs by RT-PCR analysis; type: functional
PC-3 [15] = experiment: Induction of apoptosis in human PC-3 cells assessed as fold decrease in BCL-2 gene expression at 0.017 uM incubated for 48 hrs by RT-PCR analysis; type: functional
PC-3 [16] = experiment: Induction of cell cycle arrest in human PC-3 cells assessed as accumulation of cells at G1-phase at 0.017 uM incubated for 48 hrs by Annexin V-FITC and PI staining based flow cytometric analysis (reference value: 44.73 %); type: functional
PC-3 [17] = experiment: Induction of cell cycle arrest in human PC-3 cells assessed as accumulation of cells at S-phase at 0.017 uM incubated for 48 hrs by Annexin V-FITC and PI staining based flow cytometric analysis (reference value: 42.08 %); type: functional
PC-3 [18] = experiment: Antitumor activity against human PC-3 cells xenografted in mouse assessed as decrease in tumor volume at 4.2 mg/kg,ip administration; type: functional
PC-3 [19] = experiment: Induction of apoptosis in human PC-3 cells assessed as fold change in caspase-3 gene expression at 0.017 uM incubated for 48 hrs by RT-PCR analysis; type: functional
PC-3 [20] = experiment: Induction of apoptosis in human PC-3 cells assessed as early apoptotic cells at 0.017 uM incubated for 48 hrs by Annexin V-FITC and PI staining based flow cytometric analysis (reference value: 0.27 %); type: functional
PC-3 [21] = experiment: Antitumor activity against human PC-3 cells xenografted in mouse assessed as hepatocyte balloon degeneration at 5.2 mg/kg,ip administration by; type: functional, organism-based
[22] = target: Serine/threonine-protein kinase pim-1 (Homo sapiens, UniProt P11309); experiment: Inhibition of PIM-1 (unknown origin)
Chain of Serine/threonine-protein kinase pim-1 (P11309 whole entry): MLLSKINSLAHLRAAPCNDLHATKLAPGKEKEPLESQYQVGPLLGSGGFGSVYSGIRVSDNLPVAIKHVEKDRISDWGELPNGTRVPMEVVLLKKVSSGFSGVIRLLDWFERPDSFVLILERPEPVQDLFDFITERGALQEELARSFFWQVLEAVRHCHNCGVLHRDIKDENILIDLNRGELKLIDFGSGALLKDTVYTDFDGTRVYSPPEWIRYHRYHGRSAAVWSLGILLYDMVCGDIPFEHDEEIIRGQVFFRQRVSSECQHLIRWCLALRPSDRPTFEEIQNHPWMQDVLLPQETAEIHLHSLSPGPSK

PC-3 [23] = experiment: Induction of apoptosis in human PC-3 cells assessed as fold change in caspase-8 gene expression at 0.017 uM incubated for 48 hrs by RT-PCR analysis; type: functional
PC-3 [24] = experiment: Induction of apoptosis in human PC-3 cells assessed as necrotic cells at 0.017 uM incubated for 48 hrs by Annexin V-FITC and PI staining based flow cytometric analysis (reference value: 0.77 %); type: functional
PC-3 [25] = experiment: Induction of cell cycle arrest in human PC-3 cells assessed as accumulation of cells at PreG1-phase at 0.017 uM incubated for 48 hrs by Annexin V-FITC and PI staining based flow cytometric analysis (reference value: 1.37 %); type: functional
PC-3 [26] = experiment: Induction of apoptosis in human PC-3 cells assessed as fold decrease in JAK2 gene expression at 0.017 uM incubated for 48 hrs by RT-PCR analysis; type: functional
PC-3 [27] = experiment: Induction of apoptosis in human PC-3 cells assessed as fold decrease in STAT3 gene expression at 0.017 uM incubated for 48 hrs by RT-PCR analysis; type: functional
PC-3 [28] = experiment: Induction of apoptosis in human PC-3 cells assessed as fold change in p53 gene expression at 0.017 uM incubated for 48 hrs by RT-PCR analysis; type: functional
PC-3 [29] = experiment: Induction of apoptosis in human PC-3 cells assessed as fold increase in apoptosis at 0.017 uM incubated for 48 hrs by DAPI-staining based confocal microscopic analysis; type: functional
PC-3 [30] = experiment: Antitumor activity against human PC-3 cells xenografted in mouse assessed as decrease in body weight loss at 4.2 mg/kg,ip administration; type: functional, organism-based
[31] = Toxicity in mouse xenografted with human PC-3 cells assessed as lethal dose at ip administration; type: organism-based; details: in vivo
PC-3 [32] = experiment: Antitumor activity against human PC-3 cells xenografted in mouse assessed as hepatocyte hydropic degeneration at 5.2 mg/kg,ip administration by; type: functional, organism-based
PC-3 [33] = experiment: Induction of apoptosis in human PC-3 cells assessed as fold change in caspase-9 gene expression at 0.017 uM incubated for 48 hrs by RT-PCR analysis; type: functional
PC-3 [34] = experiment: Induction of apoptosis in human PC-3 cells assessed as nuclear condensation at 0.017 uM incubated for 48 hrs by DAPI-staining based confocal microscopic analysis; type: functional, cell-based
PC-3 [35] = experiment: Induction of apoptosis in human PC-3 cells at 0.017 uM incubated for 48 hrs by Annexin V-FITC and PI staining based flow cytometric analysis relative to control; type: functional
PC-3 [36] = experiment: Antitumor activity against human PC-3 cells xenografted in mouse assessed as tumor growth inhibition at 4.2 mg/kg,ip administration; type: functional; details: read-out: TGI
PC-3 [37] = experiment: Antitumor activity against human PC-3 cells xenografted in mouse assessed as decrease in tumor mass at 4.2 mg/kg,ip administration; type: functional
PC-3 [38] = experiment: Antitumor activity against human PC-3 cells xenografted in mouse assessed as decrease in liver damage at 5.2 mg/kg,ip administration by; type: functional, organism-based

COc1cccc(-c2nnc(-c3ccnc(-c4ccccc4)c3)o2)c1
IC50 (HepG2): ≥ 50 µM | IC50 (PC-3 [1]): 3.21 µM | IC50 (MCF7): 0.75 µM

Fc1cccc(-c2nnc(-c3ccnc(-c4ccccc4)c3)o2)c1
IC50 (HepG2): 4.31 µM | IC50 (PC-3 [1]): 6.21 µM | IC50 (MCF7): 3.8 µM

Fc1cccc(-c2nnc(-c3ccnc(-c4ccc(C(F)(F)F)cc4)c3)o2)c1
IC50 (HepG2): 6.02 µM | IC50 (PC-3 [1]): 0.76 µM | IC50 at 48 h (in vitro): 31.9 µM | IC50 (MCF7): 70.1 µM | Activity [2]: Dose-Dependent Effect

FC(F)(F)c1ccc(-c2cc(-c3nnc(-c4cccc(Cl)c4)o3)ccn2)cc1
IC50 (HepG2): 3.24 µM | IC50 (PC-3 [1]): ≥ 50 µM | IC50 (MCF7): 10 µM

COc1ccc(-c2nnc(-c3ccnc(-c4ccc(C(F)(F)F)cc4)c3)o2)cc1
IC50 (HepG2): 3.25 µM | IC50 (PC-3 [1]): 9.31 µM | IC50 (MCF7): 25.7 µM

c1ccc(-c2cc(-c3nnc(-c4ccccc4)o3)ccn2)cc1
IC50 (HepG2): 13.9 µM | IC50 (PC-3 [1]): 12.7 µM | IC50 at 48 h (in vitro): 42.6 µM | IC50 (MCF7): 8.36 µM

Cc1c(C)c2c(c(C)c1O)CCC(C)(C(=O)O)O2 (configuration not stated)
Activity [3]: 96%

FC(F)(F)c1ccc(-c2cc(-c3nnc(-c4ccccc4)o3)ccn2)cc1
IC50 (HepG2): 4.03 µM | IC50 (PC-3 [1]): ≥ 50 µM | IC50 (MCF7): 9.66 µM

CN[C@@H]1C[C@H]2O[C@@](C)([C@@H]1OC)n1c3ccccc3c3c4c(c5c6ccccc6n2c5c31)C(=O)NC4 [STAUROSPORINE]
Activity (PC-3 [4]): 6.52 g/dL | Activity (PC-3 [5]): 20% | IC50 (HepG2): 5.07 µM | Activity (PC-3 [6]): 4.95 10^6 /uL | Activity (PC-3 [7]): 50.4 U/L | Activity (PC-3 [8]): 2.81 10^3 /uL | Activity (PC-3 [9]): 52.9 mm3 | Activity (PC-3 [10]): 5.39 g/dL | Activity (PC-3 [11]): 47.38 U/L

COc1ccc(-c2nnc(-c3ccnc(-c4ccccc4)c3)o2)c(F)c1
IC50 (HepG2): 13.7 µM | IC50 (PC-3 [1]): 2.01 µM | IC50 (MCF7): 20.5 µM

COc1ccc(-c2nnc(-c3ccnc(-c4ccccc4)c3)o2)cc1
IC50 (HepG2): 7.06 µM | IC50 (PC-3 [1]): 0.56 µM | IC50 at 48 h (in vitro): ≥ 50 µM | IC50 (MCF7): 9.7 µM | Activity [2]: Dose-Dependent Effect

Clc1cccc(-c2nnc(-c3ccnc(-c4ccccc4)c3)o2)c1
Activity (PC-3 [12]): 17.35% | Activity (PC-3 [4]): 6.89 g/dL | Activity (PC-3 [13]): 7.46% | fold change (FC) (PC-3 [14]): 3.85 | fold change (FC) (PC-3 [15]): 0.45 | Activity (PC-3 [16]): 47.36% | Activity (PC-3 [17]): 45.18% | Activity (PC-3 [18]): 34.1 mm3 | fold change (FC) (PC-3 [19]): 6.98 | Activity (PC-3 [20]): 2.09% | Activity (PC-3 [21]): Active | IC50 [22]: 17 µM | Activity [3]: 94% | fold change (FC) (PC-3 [23]): 3.25 | Activity (PC-3 [24]): 11.9% | Activity (PC-3 [25]): 26.44% | IC50 (HepG2): 0.13 µM | Activity (PC-3 [6]): 4.02 10^6 /uL | fold change (FC) (PC-3 [26]): 0.52 | fold change (FC) (PC-3 [27]): 0.48 | Activity (PC-3 [7]): 49.8 U/L | fold change (FC) (PC-3 [28]): 6.58 | fold change (FC) (PC-3 [29]): 37.2 | IC50 (PC-3 [1]): 0.016 µM | Activity (PC-3 [30]): Active | LD50 [31]: 4.2 mg/kg | IC50 at 48 h (in vitro): 35.4 µM | Activity (PC-3 [8]): 2.87 10^3 /uL | IC50 (MCF7): 5.37 µM | Activity (PC-3 [32]): Active | fold change (FC) (PC-3 [33]): 8.67 | Activity (PC-3 [34]): Active | Activity (PC-3 [10]): 5.74 g/dL | Activity (PC-3 [35]): 19.44% | Activity (PC-3 [11]): 48.9 U/L | inhibition in vivo at 4.2 mg/kg (PC-3 [36]): 64.2% | Activity (PC-3 [37]): 89.4 mg | Activity [2]: Dose-Dependent Effect | Activity (PC-3 [38]): Active

Fc1ccc(-c2nnc(-c3ccnc(-c4ccccc4)c3)o2)cc1
IC50 (HepG2): ≥ 50 µM | IC50 (PC-3 [1]): 2.31 µM | IC50 (MCF7): 18.9 µM

Fc1ccc(-c2nnc(-c3ccnc(-c4ccc(C(F)(F)F)cc4)c3)o2)cc1
IC50 (HepG2): 7.21 µM | IC50 (PC-3 [1]): 0.82 µM | IC50 at 48 h (in vitro): 45.7 µM | IC50 (MCF7): 13.7 µM | Activity [2]: Dose-Dependent Effect

COc1cccc(-c2nnc(-c3ccnc(-c4ccc(C(F)(F)F)cc4)c3)o2)c1
IC50 (HepG2): ≥ 50 µM | IC50 (PC-3 [1]): 13.2 µM | IC50 (MCF7): 12.4 µM
